{"source": "ChEMBL document CHEMBL1201862", "about": "“PubChem BioAssay data set” (2004)", "key": {"H9c2": {"system": "H9c2", "experiment": "cells", "type": "functional, cell-based", "conditions": "Rattus norvegicus, H9c2, Myocardium"}, "Nonstructural protein 1": {"molecular_target": "Nonstructural protein 1 (Influenza A virus, UniProt Q194T2)", "sequence (Q194T2 whole entry)": "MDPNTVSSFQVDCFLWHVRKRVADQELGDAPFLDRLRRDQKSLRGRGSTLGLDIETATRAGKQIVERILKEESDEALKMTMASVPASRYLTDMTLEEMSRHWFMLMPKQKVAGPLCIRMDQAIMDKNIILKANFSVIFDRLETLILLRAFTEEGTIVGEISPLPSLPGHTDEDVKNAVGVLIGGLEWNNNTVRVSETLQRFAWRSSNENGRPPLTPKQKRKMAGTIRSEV", "type": "functional, Influenza A virus (A/California/07/2009(H1N1))"}, "[1]": {"molecular_target": "T1, Corticotropin-releasing factor receptor 2/Corticotropin-releasing factor-binding protein (Homo sapiens, UniProt P24387+Q13324)", "T1 sequence (Q13324 whole entry)": "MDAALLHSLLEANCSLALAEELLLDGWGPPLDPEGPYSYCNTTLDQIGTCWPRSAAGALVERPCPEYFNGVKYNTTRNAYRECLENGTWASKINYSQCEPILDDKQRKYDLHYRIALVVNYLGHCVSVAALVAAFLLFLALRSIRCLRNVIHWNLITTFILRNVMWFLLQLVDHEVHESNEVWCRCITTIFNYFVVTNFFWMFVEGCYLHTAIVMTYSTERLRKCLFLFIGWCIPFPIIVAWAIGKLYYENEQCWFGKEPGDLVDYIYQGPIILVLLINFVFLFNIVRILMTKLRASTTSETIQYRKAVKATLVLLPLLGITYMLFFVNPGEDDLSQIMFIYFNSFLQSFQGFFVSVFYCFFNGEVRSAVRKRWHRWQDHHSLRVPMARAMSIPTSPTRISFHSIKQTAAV", "T1 sequence (P24387 whole entry)": "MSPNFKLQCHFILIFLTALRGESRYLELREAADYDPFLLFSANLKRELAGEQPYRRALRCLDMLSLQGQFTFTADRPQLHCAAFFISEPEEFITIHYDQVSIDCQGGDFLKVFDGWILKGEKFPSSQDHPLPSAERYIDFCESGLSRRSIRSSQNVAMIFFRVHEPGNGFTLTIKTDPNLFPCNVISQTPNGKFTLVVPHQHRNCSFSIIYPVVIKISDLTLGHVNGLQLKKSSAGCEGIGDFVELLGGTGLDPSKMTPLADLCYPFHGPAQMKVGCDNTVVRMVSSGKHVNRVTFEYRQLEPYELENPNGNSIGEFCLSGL", "experiment": "activators of CRF receptor 2 with binding protein – uHTS hits, confirmation (AID 602473)", "type": "functional", "conditions": "read-out: EC50_Mean"}, "Genome polyprotein": {"molecular_target": "Genome polyprotein (dengue virus type 2, UniProt P29990)", "sequence (P29990 2492-3391 limits assumed)": "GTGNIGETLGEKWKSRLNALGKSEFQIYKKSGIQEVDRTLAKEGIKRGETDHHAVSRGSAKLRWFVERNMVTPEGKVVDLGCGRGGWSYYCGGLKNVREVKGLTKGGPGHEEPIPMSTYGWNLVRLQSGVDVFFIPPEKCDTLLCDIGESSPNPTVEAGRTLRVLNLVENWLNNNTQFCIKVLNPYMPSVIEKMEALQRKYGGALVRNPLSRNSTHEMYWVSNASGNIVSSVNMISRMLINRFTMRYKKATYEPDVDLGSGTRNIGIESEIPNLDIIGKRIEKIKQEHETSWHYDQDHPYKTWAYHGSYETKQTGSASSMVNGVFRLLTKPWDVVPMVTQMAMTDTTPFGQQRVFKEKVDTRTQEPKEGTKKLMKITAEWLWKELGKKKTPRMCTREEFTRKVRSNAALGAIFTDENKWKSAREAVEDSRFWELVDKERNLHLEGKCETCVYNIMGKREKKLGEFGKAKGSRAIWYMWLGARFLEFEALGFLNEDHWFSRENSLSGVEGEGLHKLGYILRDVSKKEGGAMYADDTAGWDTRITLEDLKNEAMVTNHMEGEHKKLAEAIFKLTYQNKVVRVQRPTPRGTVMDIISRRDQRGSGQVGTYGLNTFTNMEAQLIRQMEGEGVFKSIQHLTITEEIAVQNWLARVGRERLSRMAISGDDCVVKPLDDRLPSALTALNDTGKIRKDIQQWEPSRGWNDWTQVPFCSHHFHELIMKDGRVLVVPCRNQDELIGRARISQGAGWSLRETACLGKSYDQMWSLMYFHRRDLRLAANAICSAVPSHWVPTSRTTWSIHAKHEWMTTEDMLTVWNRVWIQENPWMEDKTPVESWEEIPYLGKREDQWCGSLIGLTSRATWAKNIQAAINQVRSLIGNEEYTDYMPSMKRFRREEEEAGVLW", "experiment": "flavivirus cap methylation enzyme inhibition – biochemical, confirmation dose response, primary screen (AID 588689)", "type": "functional"}, "[2]": {"molecular_target": "T2, Calpain-2 catalytic subunit (Sus scrofa, UniProt P43367)", "T2 sequence (P43367 whole entry)": "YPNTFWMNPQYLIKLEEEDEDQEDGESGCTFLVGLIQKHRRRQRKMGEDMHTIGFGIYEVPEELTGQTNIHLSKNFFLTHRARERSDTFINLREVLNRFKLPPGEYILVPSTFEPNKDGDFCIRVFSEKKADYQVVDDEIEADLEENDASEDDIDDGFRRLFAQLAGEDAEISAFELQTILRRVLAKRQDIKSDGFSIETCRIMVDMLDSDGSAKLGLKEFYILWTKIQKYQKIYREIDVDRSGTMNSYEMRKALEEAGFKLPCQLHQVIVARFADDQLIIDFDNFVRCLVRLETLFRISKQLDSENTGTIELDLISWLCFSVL", "experiment": "m-calpain protease blockers, concentration series – biochemical, fluorogenic peptide substrate, dose response (AID 1420)", "type": "functional"}, "[3]": {"experiment": "luciferase reporter signal suppression in cells – H4 neuroglioma cells, luminescence, dose response (AID 1990)", "type": "functional, cell-based"}, "[4]": {"molecular_target": "T3, RNA-binding protein pos-1 (Caenorhabditis elegans, UniProt G5EF15)", "T3 sequence (G5EF15 whole entry)": "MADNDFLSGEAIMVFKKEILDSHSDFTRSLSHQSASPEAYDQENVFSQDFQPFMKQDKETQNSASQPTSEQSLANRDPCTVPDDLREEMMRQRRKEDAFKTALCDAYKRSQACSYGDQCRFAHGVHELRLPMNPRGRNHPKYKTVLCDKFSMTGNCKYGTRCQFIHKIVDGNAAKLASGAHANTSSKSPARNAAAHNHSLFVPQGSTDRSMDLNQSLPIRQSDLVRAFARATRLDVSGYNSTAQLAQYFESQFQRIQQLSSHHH", "experiment": "disruptors of C. elegans POS-1 RNA interaction – biochemical, fluorescence polarization, dose response (AID 1964);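 further: purified POS-1 fused to maltose binding protein made in E. coli; potency of compounds blocking POS-1 binding to fluorescent RNA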"}, "[5]": {"experiment": "Luminescence Cell-Based Dose Response HTS to Identify Inhibitors of 5'UTR Stem-Loop Driven Prion Protein mRNA Translation in H4 Neuroglioblastoma Cells. [Related pubchem assays: 1827 (Project Summary), 1813 (Primary HTS)]", "type": "functional"}, "[6]": {"molecular_target": "T4, Zinc finger protein mex-5 (Caenorhabditis elegans, UniProt Q9XUB2)", "T4 sequence (Q9XUB2 whole entry)": "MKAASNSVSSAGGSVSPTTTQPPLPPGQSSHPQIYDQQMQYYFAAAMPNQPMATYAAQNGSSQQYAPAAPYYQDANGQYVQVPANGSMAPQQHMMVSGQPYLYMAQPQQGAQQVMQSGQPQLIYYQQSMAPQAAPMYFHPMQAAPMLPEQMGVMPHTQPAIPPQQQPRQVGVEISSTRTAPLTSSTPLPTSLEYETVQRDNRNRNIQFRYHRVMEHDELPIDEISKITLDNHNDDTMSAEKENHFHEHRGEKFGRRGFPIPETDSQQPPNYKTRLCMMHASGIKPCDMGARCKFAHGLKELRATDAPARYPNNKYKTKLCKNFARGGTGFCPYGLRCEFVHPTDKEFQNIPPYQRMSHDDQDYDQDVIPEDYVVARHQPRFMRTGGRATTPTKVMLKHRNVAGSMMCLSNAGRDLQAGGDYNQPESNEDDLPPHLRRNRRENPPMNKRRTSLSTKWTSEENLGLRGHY", "experiment": "potency of MEX-5 RNA-binding blockers – biochemical, C. elegans, fluorescence polarization, dose response (AID 1960)"}, "[7]": {"experiment": "alpha-synuclein stem-loop luciferase translation blockers – H4 neuroglioma cells, luminescence, confirmation (AID 1988)", "type": "functional, cell-based"}, "Vero": {"system": "Vero", "experiment": "cells", "type": "functional", "conditions": "Chlorocebus sabaeus"}, "[8]": {"experiment": "microbe, parasite or virus in culture", "type": "functional", "conditions": "Mycobacterium tuberculosis"}, "[9]": {"molecular_target": "T5, High affinity choline transporter 1 (Homo sapiens, UniProt Q9GZV3)", "T5 sequence (Q9GZV3 whole entry)": "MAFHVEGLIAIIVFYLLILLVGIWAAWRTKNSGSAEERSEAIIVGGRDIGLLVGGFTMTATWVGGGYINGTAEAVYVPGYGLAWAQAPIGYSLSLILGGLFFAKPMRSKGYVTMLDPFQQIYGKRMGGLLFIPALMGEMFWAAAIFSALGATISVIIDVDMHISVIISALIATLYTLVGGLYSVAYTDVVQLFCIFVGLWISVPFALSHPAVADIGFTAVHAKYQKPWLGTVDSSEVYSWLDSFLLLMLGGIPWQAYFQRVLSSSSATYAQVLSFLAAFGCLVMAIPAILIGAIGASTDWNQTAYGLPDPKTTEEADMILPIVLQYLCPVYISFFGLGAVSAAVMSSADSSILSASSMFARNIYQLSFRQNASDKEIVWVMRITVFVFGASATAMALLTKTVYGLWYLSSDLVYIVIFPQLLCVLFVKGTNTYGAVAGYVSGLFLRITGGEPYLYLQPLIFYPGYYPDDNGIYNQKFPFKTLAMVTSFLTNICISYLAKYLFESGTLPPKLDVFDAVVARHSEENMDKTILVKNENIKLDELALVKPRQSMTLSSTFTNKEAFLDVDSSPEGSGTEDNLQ", "experiment": "human choline transporter blockers, potency – cell-based, 5-point CRC, membrane potential dye, dose response (AID 504840)", "type": "functional"}}, "note": "Calls of active or inactive are those of the source.", "data": [{"smiles": "O=C1c2ccccc2NC(c2ccc([N+](=O)[O-])cc2)N1O", "note": "(stereo not given)", "values": [{"measurement": "IC50", "setting": "H9c2", "result": "10.4 µM (active)"}]}, {"smiles": "CCOC(=O)CNC(=O)CSc1nc2cc(Br)c(C)nc2[nH]1", "values": [{"measurement": "IC50", "setting": "H9c2", "result": "24 µM (active)"}]}, {"smiles": "CCn1c(SCC(=O)Nc2ccccc2N2CCCCC2)nc2c1c(=O)n(C)c(=O)n2C", "values": [{"measurement": "IC50", "setting": "H9c2", "result": "> 79 µM (inactive)"}]}, {"smiles": "COc1ccc(-c2nn3c(-c4ccccc4)nnc3s2)cc1OC", "values": [{"measurement": "IC50", "setting": "H9c2", "result": "> 79 µM (inactive)"}]}, {"smiles": "CCCCNc1c([N+](=O)[O-])cc(C)cc1[N+](=O)[O-]", "values": [{"measurement": "IC50", "setting": "Nonstructural protein 1", "result": "27.1 µM (active)"}]}, {"smiles": "CCCS(=O)(=O)c1nc(S(=O)(=O)c2ccc(C)cc2)c(N2CCCC2)s1", "values": [{"measurement": "EC50", "setting": "[1]", "result": "> 53 µM (inactive)"}]}, {"smiles": "C=CCN1C(=O)/C(=C/c2cccs2)C(=O)NC1=S", "values": [{"measurement": "IC50", "setting": "Genome polyprotein", "result": "43.8 µM (active)"}]}, {"smiles": "O=C(Nc1ccc2ccccc2c1)C(=O)C1C(=O)Nc2ccccc21", "note": "(stereo not given)", "values": [{"measurement": "IC50", "setting": "[2]", "result": "< 0.4 µM (not active)"}]}, {"smiles": "CC(C)(C)OC(=O)N1CC=C2C(C#N)=C(N)C(C#N)(C#N)[C@H](c3cccnc3)[C@H]2C1", "values": [{"measurement": "EC50", "setting": "[3]", "result": "> 120 µM (not active)"}, {"measurement": "EC50", "setting": "[4]", "result": "61.7 µM (active)"}, {"measurement": "EC50", "setting": "[5]", "result": "> 120 µM (not active)"}, {"measurement": "EC50", "setting": "[6]", "result": "54 µM (active)"}, {"measurement": "EC50", "setting": "[7]", "result": "60.3 µM (active)"}, {"measurement": "IC50", "setting": "Genome polyprotein", "result": "> 100 µM (active)"}]}, {"smiles": "Cc1nn2c(NCCCN(C)C)c3c(nc2c1-c1ccccc1)CCCC3", "values": [{"measurement": "CC50", "setting": "Vero", "result": "> 25 µM (active)"}]}, {"smiles": "CN(C)c1ccc(N=Nc2ccccc2C(=O)OCC(=O)N(C)c2ccccc2)cc1", "values": [{"measurement": "IC50", "setting": "Nonstructural protein 1", "result": "21.2 µM (active)"}]}, {"smiles": "CNc1nc(NN)nc(Nc2ccccc2)n1", "values": [{"measurement": "IC50", "setting": "Nonstructural protein 1", "result": "15 µM (active)"}]}, {"smiles": "COc1ccc(S(=O)(=O)N2CCOCC2)cc1N=Nc1sc(N)nc1-c1ccccc1", "values": [{"measurement": "EC50", "setting": "[3]", "result": "14.7 µM (active)"}, {"measurement": "EC50", "setting": "[5]", "result": "> 120 µM (not active)"}, {"measurement": "EC50", "setting": "[7]", "result": "46.6 µM (active)"}, {"measurement": "IC50", "setting": "Nonstructural protein 1", "result": "> 100 µM (active)"}]}, {"smiles": "c1ccc2c(C3=NN=C(NC4CCCCC4)SC3)c[nH]c2c1", "values": [{"measurement": "CC50", "setting": "[8]", "result": "> 40 µM (active)"}, {"measurement": "IC50", "setting": "[2]", "result": "6.76 µM (not active)"}]}, {"smiles": "CCN(CC)c1[nH]cnc2c3ccccc3nc1-2", "values": [{"measurement": "IC50", "setting": "[9]", "result": "13.8 µM (active)"}]}, {"smiles": "CN(C)CCn1c(=S)[nH]c2ccccc2c1=O", "values": [{"measurement": "IC50", "setting": "[9]", "result": "13.2 µM (active)"}]}]}
